In US20240123080A1, “CYTOTOXIC COMPOUNDS AND CONJUGATES THEREOF” (Seagen Inc., priority 2022, published 2024):
*1 amine or outer side, *2 acyl side, *3 side chain or, on linkers, in order; H or OH if unused. Where a SMILES comes first, the peptide text is derived from it. [ ]: non-standard residue; d: D form. The star is where a group is joined. Dolaproine = CO[C@@H]([C@@H]1CCCN1)[C@@H](C)C(=O)O; Dil = CC[C@H](C)[C@H](NC)[C@@H](CC(=O)O)OC; Met(O2) = CS(=O)(=O)CC[C@H](N)C(=O)O; X9 = CCN([C@@H](CO)C(=O)[*:2])[*:1]; X1 = C[C@@H](N*)[C@@H](O)c1ccccc1; X10 = C[C@H]1OC(=O)N[C@@H]1C(=O)*; Phe(ol) = N[C@H](CO)Cc1ccccc1; X4 = CN1C(=O)OC(C)(C)C1C(=O)*; X6 = CN(C)[C@@H](CCO)C(=O)*; X8 = CN1C(=O)OC[C@H]1C(=O)*; X5 = O=C1N[C@H](C(=O)*)CO1; NMeS = CN[C@@H](CO)C(=O)O; hSer = N[C@@H](CCO)C(=O)O; X7 = O=C1NC(C(=O)*)CCO1; Dap = NC[C@H](N)C(=O)O

Tests used:
Assay in all cases: In vitro cytotoxicity, cell proliferation assay (CellTiter-Glo, 96 h)
Format in all cases: cell-based
DEL ALCL = settings: auristatin free drug
Description: (§1) The cytotoxicity of free drugs and drug conjugates were measured by a cell proliferation assay employing the protocol described in Promega Corp. Technical Bulletin TB288; and Mendoza et al., 2002, Cancer Res. 62:5485-5488), the methods of which are specifically incorporated by reference herein. Briefly, an aliquot of 40 μl of cell culture containing about 400 cells in medium is deposited in each well of a 384-well, opaque-walled plate. A 10 μL aliquot of free drug or drug conjugate is added to the experimental wells and incubated for 96 h and are then equilibrated to room temperature for approximately 30 minutes whereupon a volume of CellTiter-Glo™ reagent equal to the volume of cell culture medium present in each well is added. The contents are mixed for 2 minutes on an orbital shaker to induce cell lysis and the plate is incubated at room temperature for 10 minutes to stabilize the luminescence signal for recordation.

Karpas299 NHL = settings: Homo sapiens, KARPAS-299, auristatin free drug
Description: as §1

L540cy HL = settings: auristatin free drug
Description: as §1

SMILES	IC50 (DEL ALCL) [nM]	IC50 (Karpas299 NHL) [nM]	IC50 (L540cy HL) [nM]
CC[C@H](C)[C@@H]([C@@H](CC(=O)N1CCC[C@H]1[C@H](OC)[C@@H](C)C(=O)N[C@@H](Cc1ccccc1)C(=O)O)OC)N(C)C(=O)[C@@H](NC(=O)[C@H](CO)NC)C(C)C [Comparative Example A, reference compound] (H-[NMeS]V[Dil][Dolaproine]F-OH)	209	253	> 1000
CC[C@H](C)[C@@H]([C@@H](CC(=O)N1CCC[C@H]1[C@H](OC)[C@@H](C)C(=O)N[C@@H](Cc1ccccc1)C(=O)O)OC)N(C)C(=O)[C@@H](NC(=O)[C@@H]1COC(=O)N1C)C(C)C [Comparative Example C, reference compound] (X8-V[Dil][Dolaproine]F-OH)	342	218	284
CC[C@H](C)[C@@H]([C@@H](CC(=O)N1CCC[C@H]1[C@H](OC)[C@@H](C)C(=O)N[C@H](CO)Cc1ccccc1)OC)N(C)C(=O)[C@@H](NC(=O)[C@H](CCO)N(C)C)C(C)C [Example 9] (X6-V[Dil][Dolaproine][Phe(ol)])	0.8	0.9	4
CC[C@H](C)[C@@H]([C@@H](CC(=O)N1CCC[C@H]1[C@H](OC)[C@@H](C)C(=O)N[C@H](C)[C@@H](O)c1ccccc1)OC)N(C)C(=O)[C@@H](NC(=O)[C@H]([C@@H](C)O)N(C)C)C(C)C [Example 10]	0.4	0.5	3
CC[C@H](C)[C@@H]([C@@H](CC(=O)N1CCC[C@H]1[C@H](OC)[C@@H](C)C(=O)N[C@H](C)[C@@H](O)c1ccccc1)OC)N(C)C(=O)[C@@H](NC(=O)[C@@H](CO)N(C)C)C(C)C [Example 11]	1	1	6
CCN[C@@H](CO)C(=O)N[C@H](C(=O)N(C)[C@@H]([C@@H](C)CC)[C@@H](CC(=O)N1CCC[C@H]1[C@H](OC)[C@@H](C)C(=O)N[C@H](CO)Cc1ccccc1)OC)C(C)C [Example 15] (H-[X9]V[Dil][Dolaproine][Phe(ol)])	0.7	2.3	3.9
CC[C@H](C)[C@@H]([C@@H](CC(=O)N1CCC[C@H]1[C@H](OC)[C@@H](C)C(=O)N[C@H](CO)Cc1ccccc1)OC)N(C)C(=O)[C@@H](NC(=O)C[C@@H](NC)[C@@H](C)O)C(C)C [Example 22]	5.8	13	16
CC[C@H](C)[C@@H]([C@@H](CC(=O)N1CCC[C@H]1[C@H](OC)[C@@H](C)C(=O)N[C@H](CO)Cc1ccccc1)OC)N(C)C(=O)[C@@H](NC(=O)[C@@H](N)CO)C(C)C [Example 23] (H-SV[Dil][Dolaproine][Phe(ol)])	17	66	662
CC[C@H](C)[C@@H]([C@@H](CC(=O)N1CCC[C@H]1[C@H](OC)[C@@H](C)C(=O)N[C@H](CO)Cc1ccccc1)OC)N(C)C(=O)[C@@H](NC(=O)[C@@H](N)CCO)C(C)C [Example 24] (H-[hSer]V[Dil][Dolaproine][Phe(ol)])	13	43	621
CC[C@H](C)[C@@H]([C@@H](CC(=O)N1CCC[C@H]1[C@H](OC)[C@@H](C)C(=O)N[C@H](CO)Cc1ccccc1)OC)N(C)C(=O)[C@@H](NC(=O)[C@@H](N)[C@@H](C)O)C(C)C [Example 25] (H-TV[Dil][Dolaproine][Phe(ol)])	18.9	62	457
CC[C@H](C)[C@@H]([C@@H](CC(=O)N1CCC[C@H]1[C@H](OC)[C@@H](C)C(=O)N[C@H](C)[C@@H](O)c1ccccc1)OC)N(C)C(=O)[C@@H](NC(=O)[C@H](N)CO)C(C)C [Example 26] (H-[dS]V[Dil][Dolaproine]-X1)	4.2	5	20
CC[C@H](C)[C@@H]([C@@H](CC(=O)N1CCC[C@H]1[C@H](OC)[C@@H](C)C(=O)N[C@H](C)[C@@H](O)c1ccccc1)OC)N(C)C(=O)[C@@H](NC(=O)[C@H](N)[C@H](C)O)C(C)C [Example 27] (H-[dT]V[Dil][Dolaproine]-X1)	1.9	2.3	13
CC[C@H](C)[C@@H]([C@@H](CC(=O)N1CCC[C@H]1[C@H](OC)[C@@H](C)C(=O)N[C@H](CO)Cc1ccccc1)OC)N(C)C(=O)[C@@H](NC(=O)[C@@H]1COC(=O)N1C)C(C)C [Example 36] (X8-V[Dil][Dolaproine][Phe(ol)])	6.7	27	197
CC[C@H](C)[C@@H]([C@@H](CC(=O)N1CCC[C@H]1[C@H](OC)[C@@H](C)C(=O)N[C@H](C)[C@@H](O)c1ccccc1)OC)N(C)C(=O)[C@@H](NC(=O)[C@@H]1COC(=O)N1C)C(C)C [Example 37]	> 1000	> 1000	> 1000
CC[C@H](C)[C@@H]([C@@H](CC(=O)N1CCC[C@H]1[C@H](OC)[C@@H](C)C(=O)NCCc1ccccc1)OC)N(C)C(=O)[C@@H](NC(=O)[C@@H]1COC(=O)N1C)C(C)C [Example 38]	148	> 1000	512
CC[C@H](C)[C@@H]([C@@H](CC(=O)N1CCC[C@H]1[C@H](OC)[C@@H](C)C(=O)N[C@@H](Cc1ccccc1)c1nccs1)OC)N(C)C(=O)[C@@H](NC(=O)[C@@H]1COC(=O)N1C)C(C)C [Example 39]	512	> 1000	> 1000
CC[C@H](C)[C@@H]([C@@H](CC(=O)N1CCC[C@H]1[C@H](OC)[C@@H](C)C(=O)N[C@H](CO)Cc1ccccc1)OC)N(C)C(=O)[C@@H](NC(=O)[C@@H]1COC(=O)N1)C(C)C [Example 40] (X5-V[Dil][Dolaproine][Phe(ol)])	12.3	60	442
CC[C@H](C)[C@@H]([C@@H](CC(=O)N1CCC[C@H]1[C@H](OC)[C@@H](C)C(=O)N[C@H](CO)Cc1ccccc1)OC)N(C)C(=O)[C@@H](NC(=O)C1CCOC(=O)N1)C(C)C (stereo partly drawn) [Example 41] (X7-V[Dil][Dolaproine][Phe(ol)])	15	62	457
CC[C@H](C)[C@@H]([C@@H](CC(=O)N1CCC[C@H]1[C@H](OC)[C@@H](C)C(=O)N[C@H](CO)Cc1ccccc1)OC)N(C)C(=O)[C@@H](NC(=O)[C@H]1NC(=O)O[C@@H]1C)C(C)C [Example 42] (X10-V[Dil][Dolaproine][Phe(ol)])	16	64	481
CC[C@H](C)[C@@H]([C@@H](CC(=O)N1CCC[C@H]1[C@H](OC)[C@@H](C)C(=O)N[C@H](CO)Cc1ccccc1)OC)N(C)C(=O)[C@@H](NC(=O)C1N(C)C(=O)OC1(C)C)C(C)C (stereo partly drawn) [Example 43] (X4-V[Dil][Dolaproine][Phe(ol)])	3.2	5.9	19
CC[C@H](C)[C@@H]([C@@H](CC(=O)N1CCC[C@H]1[C@H](OC)[C@@H](C)C(=O)N[C@H](CO)Cc1ccccc1)OC)N(C)C(=O)[C@@H](NC(=O)[C@@H](N)CNC(C)=O)C(C)C [Example 46] (H-[Dap](Ac)V[Dil][Dolaproine][Phe(ol)])	141	264	> 1000
CC[C@H](C)[C@@H]([C@@H](CC(=O)N1CCC[C@H]1[C@H](OC)[C@@H](C)C(=O)N[C@H](CO)Cc1ccccc1)OC)N(C)C(=O)[C@@H](NC(=O)[C@@H](N)CCS(C)(=O)=O)C(C)C [Example 47] (H-[Met(O2)]V[Dil][Dolaproine][Phe(ol)])	> 1000	> 1000	> 1000
